Measurements published in PubChem BioAssay (NCI).
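Grown in 96-well plates, cells were treated for 48 hours with each compound at five concentrations. Insufficient inhibition: endpoint recorded as highest concentration tested. At the GI50, growth is halved. TGI: concentration producing complete growth inhibition.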

Tests used:
Test in all cases: NCI tumour cell line growth inhibition, 48 h
SK-MEL-5 melanoma = tested on: SK-MEL-5 melanoma
K-562 leukemia = tested on: K-562 leukemia
LOX IMVI melanoma = tested on: LOX IMVI melanoma
A549 NSCLC = tested on: A549 NSCLC
T-47D breast = tested on: T-47D breast
SK-MEL-2 melanoma = tested on: SK-MEL-2 melanoma
UO-31 renal = tested on: UO-31 renal
A498 renal = tested on: A498 renal
UACC-257 melanoma = tested on: UACC-257 melanoma
IGROV1 ovarian = tested on: IGROV1 ovarian
RPMI-8226 leukemia = tested on: RPMI-8226 leukemia
OVCAR-3 ovarian = tested on: OVCAR-3 ovarian
CAKI-1 renal = tested on: CAKI-1 renal
SF-295 CNS = tested on: SF-295 CNS
BT-549 breast = tested on: BT-549 breast
HCT-116 colon = tested on: HCT-116 colon
SF-539 CNS = tested on: SF-539 CNS
SK-OV-3 ovarian = tested on: SK-OV-3 ovarian
U251 CNS = tested on: U251 CNS
NCI-H460 lung = tested on: NCI-H460 lung
NCI-H226 lung = tested on: NCI-H226 lung
HL-60(TB) leukemia = tested on: HL-60(TB) leukemia
SF-268 CNS = tested on: SF-268 CNS
KM12 colon = tested on: KM12 colon
HOP-62 NSCLC = tested on: HOP-62 NSCLC
OVCAR-4 ovarian = tested on: OVCAR-4 ovarian
HCC-2998 colon = tested on: HCC-2998 colon
EKVX NSCLC = tested on: EKVX NSCLC
MDA-MB-231 breast = tested on: MDA-MB-231 breast
SNB-75 CNS = tested on: SNB-75 CNS
NCI-H23 lung = tested on: NCI-H23 lung
COLO 205 colon = tested on: COLO 205 colon
MALME-3M melanoma = tested on: MALME-3M melanoma
TK-10 renal = tested on: TK-10 renal
SN12C renal = tested on: SN12C renal
NCI/ADR-RES ovarian = tested on: NCI/ADR-RES ovarian
SW-620 colon = tested on: SW-620 colon
MOLT-4 leukemia = tested on: MOLT-4 leukemia
HS 578T breast = tested on: HS 578T breast
CCRF-CEM leukemia = tested on: CCRF-CEM leukemia
SR leukemia = tested on: SR leukemia
SK-MEL-28 melanoma = tested on: SK-MEL-28 melanoma
MCF7 breast = tested on: MCF7 breast
HT29 colon = tested on: HT29 colon
M14 melanoma = tested on: M14 melanoma
HOP-92 NSCLC = tested on: HOP-92 NSCLC
PC-3 prostate = tested on: PC-3 prostate
786-0 renal = tested on: 786-0 renal
OVCAR-8 ovarian = tested on: OVCAR-8 ovarian
ACHN renal = tested on: ACHN renal
HCT-15 colon = tested on: HCT-15 colon
NCI-H522 lung = tested on: NCI-H522 lung
RXF 393 renal = tested on: RXF 393 renal
DU-145 prostate = tested on: DU-145 prostate
UACC-62 melanoma = tested on: UACC-62 melanoma
MDA-MB-435 = tested on: MDA-MB-435
SNB-19 CNS = tested on: SNB-19 CNS
OVCAR-5 ovarian = tested on: OVCAR-5 ovarian

CCCn1cnc2c(c1=N)C(c1ccc(Cl)cc1)c1sc3c(CC)cccc3c1O2 (stereo not given)
GI50 (SK-MEL-5 melanoma): 0.683 µM | TGI (SK-MEL-5 melanoma): 11.5 µM | GI50 (K-562 leukemia): 0.328 µM | TGI (K-562 leukemia): 6.15 µM | GI50 (LOX IMVI melanoma): 0.706 µM | TGI (LOX IMVI melanoma): 10.9 µM | GI50 (A549 NSCLC): 0.824 µM | TGI (A549 NSCLC): 14.2 µM | GI50 (T-47D breast): 0.581 µM | TGI (T-47D breast): 14.9 µM | GI50 (SK-MEL-2 melanoma): 0.925 µM | TGI (SK-MEL-2 melanoma): 16 µM | GI50 (UO-31 renal): 0.712 µM | TGI (UO-31 renal): 18.3 µM | GI50 (A498 renal): 0.359 µM | TGI (A498 renal): 1.83 µM | GI50 (UACC-257 melanoma): 12.2 µM | TGI (UACC-257 melanoma): 33.7 µM | GI50 (IGROV1 ovarian): 0.607 µM | TGI (IGROV1 ovarian): 11.8 µM | GI50 (RPMI-8226 leukemia): 0.471 µM | TGI (RPMI-8226 leukemia): 7.39 µM | GI50 (OVCAR-3 ovarian): 0.347 µM | TGI (OVCAR-3 ovarian): 1.78 µM | GI50 (CAKI-1 renal): 0.361 µM | TGI (CAKI-1 renal): 15.6 µM | GI50 (SF-295 CNS): 0.385 µM | TGI (SF-295 CNS): 3.75 µM | GI50 (BT-549 breast): 1.96 µM | TGI (BT-549 breast): 16.7 µM | GI50 (HCT-116 colon): 0.446 µM | TGI (HCT-116 colon): 10.3 µM | GI50 (SF-539 CNS): 0.41 µM | TGI (SF-539 CNS): 1.9 µM | GI50 (SK-OV-3 ovarian): 0.67 µM | TGI (SK-OV-3 ovarian): 20.8 µM | GI50 (U251 CNS): 0.505 µM | TGI (U251 CNS): 10.9 µM | GI50 (NCI-H460 lung): 0.392 µM | TGI (NCI-H460 lung): 10.4 µM | GI50 (NCI-H226 lung): 0.936 µM | TGI (NCI-H226 lung): 10.2 µM | GI50 (HL-60(TB) leukemia): 0.307 µM | TGI (HL-60(TB) leukemia): 1.66 µM | GI50 (SF-268 CNS): 0.82 µM | TGI (SF-268 CNS): 15.2 µM | GI50 (KM12 colon): 0.448 µM | TGI (KM12 colon): 13.4 µM | GI50 (HOP-62 NSCLC): 0.563 µM | TGI (HOP-62 NSCLC): 8.93 µM | GI50 (OVCAR-4 ovarian): 1.2 µM | TGI (OVCAR-4 ovarian): 18.2 µM | GI50 (HCC-2998 colon): 1.75 µM | TGI (HCC-2998 colon): 7.55 µM | GI50 (EKVX NSCLC): 1.12 µM | TGI (EKVX NSCLC): 16.6 µM | GI50 (MDA-MB-231 breast): 1.95 µM | TGI (MDA-MB-231 breast): 13.7 µM | GI50 (SNB-75 CNS): 0.202 µM | TGI (SNB-75 CNS): 0.878 µM | GI50 (NCI-H23 lung): 0.974 µM | TGI (NCI-H23 lung): 11.3 µM | GI50 (COLO 205 colon): 0.971 µM | TGI (COLO 205 colon): 3.93 µM | GI50 (MALME-3M melanoma): 0.722 µM | TGI (MALME-3M melanoma): 20.3 µM | GI50 (TK-10 renal): 7.62 µM | TGI (TK-10 renal): 23.5 µM | GI50 (SN12C renal): 1.58 µM | TGI (SN12C renal): 15 µM | GI50 (NCI/ADR-RES ovarian): 0.419 µM | TGI (NCI/ADR-RES ovarian): 2.75 µM | GI50 (SW-620 colon): 0.422 µM | TGI (SW-620 colon): 12.8 µM | GI50 (MOLT-4 leukemia): 0.644 µM | TGI (MOLT-4 leukemia): 9.25 µM | GI50 (HS 578T breast): 0.434 µM | TGI (HS 578T breast): 5.64 µM | GI50 (CCRF-CEM leukemia): 0.37 µM | GI50 (SR leukemia): 0.342 µM | TGI (SR leukemia): 5.01 µM | GI50 (SK-MEL-28 melanoma): 2.99 µM | TGI (SK-MEL-28 melanoma): 22.4 µM | GI50 (MCF7 breast): 0.354 µM | TGI (MCF7 breast): 11.7 µM | GI50 (HT29 colon): 0.725 µM | TGI (HT29 colon): 6.13 µM | GI50 (M14 melanoma): 0.588 µM | TGI (M14 melanoma): 9.75 µM | GI50 (HOP-92 NSCLC): 1.25 µM | TGI (HOP-92 NSCLC): 12.8 µM | GI50 (PC-3 prostate): 0.564 µM | TGI (PC-3 prostate): 14.7 µM | GI50 (786-0 renal): 0.555 µM | TGI (786-0 renal): 12.9 µM | GI50 (OVCAR-8 ovarian): 1.38 µM | TGI (OVCAR-8 ovarian): 13.4 µM | GI50 (ACHN renal): 0.637 µM | TGI (ACHN renal): 17 µM | GI50 (HCT-15 colon): 0.497 µM | TGI (HCT-15 colon): 10.4 µM | GI50 (NCI-H522 lung): 0.407 µM | TGI (NCI-H522 lung): 5.53 µM | GI50 (RXF 393 renal): 0.273 µM | TGI (RXF 393 renal): 1.31 µM | GI50 (DU-145 prostate): 0.615 µM | TGI (DU-145 prostate): 11.4 µM | GI50 (UACC-62 melanoma): 0.515 µM | TGI (UACC-62 melanoma): 14.5 µM | GI50 (MDA-MB-435): 0.25 µM | TGI (MDA-MB-435): 1 µM | GI50 (SNB-19 CNS): 0.592 µM | TGI (SNB-19 CNS): 15.4 µM | GI50 (OVCAR-5 ovarian): 2.13 µM | TGI (OVCAR-5 ovarian): 13.3 µM
